In experiment [1] the target is Activin receptor type-2A (Homo sapiens) (UniProt P27037). The experiment in a line: Selectivity interaction (LanthaScreen Eu Kinase Binding Assay) EUB0001632a ACVR2A. The following applies: at 10 µM.
Experiment [2] concerns the target Histone-lysine N-methyltransferase, H3 lysine-36 specific (Homo sapiens) (UniProt Q96L73). As to the kind of experiment: Selectivity interaction (Methyltransferase screen (Scintillation proximity assays)) EUB0000255b NSD1. In general terms: Scintillation proximity formats need no separation of bound from free tracer.
Experiment [3] deals with Serine/threonine-protein kinase 35 (Homo sapiens) (UniProt Q8TDR2). The experiment in a line: Selectivity interaction (KinomeScan (DiscoverX)) EUB0000666a STK35. The settings on record: at 10 µM.
Chain of Serine/threonine-protein kinase 35 (Homo sapiens) (Q8TDR2 whole entry): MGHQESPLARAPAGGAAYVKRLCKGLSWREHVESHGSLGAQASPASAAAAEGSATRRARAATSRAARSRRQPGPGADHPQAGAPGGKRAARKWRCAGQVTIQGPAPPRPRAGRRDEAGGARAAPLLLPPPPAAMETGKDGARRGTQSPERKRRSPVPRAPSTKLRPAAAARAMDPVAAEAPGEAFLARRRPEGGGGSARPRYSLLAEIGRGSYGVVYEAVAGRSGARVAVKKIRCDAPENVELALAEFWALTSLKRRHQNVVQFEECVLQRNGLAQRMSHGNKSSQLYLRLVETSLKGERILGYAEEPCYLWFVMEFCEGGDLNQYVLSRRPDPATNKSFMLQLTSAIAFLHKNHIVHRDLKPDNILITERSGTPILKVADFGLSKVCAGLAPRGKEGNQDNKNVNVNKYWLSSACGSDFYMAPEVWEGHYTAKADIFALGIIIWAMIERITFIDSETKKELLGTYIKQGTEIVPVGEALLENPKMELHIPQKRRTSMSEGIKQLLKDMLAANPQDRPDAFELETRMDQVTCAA
In experiment [4] the target is T1, Dual serine/threonine and tyrosine protein kinase (Homo sapiens) (UniProt Q6XUX3).
T1 sequence (whole entry): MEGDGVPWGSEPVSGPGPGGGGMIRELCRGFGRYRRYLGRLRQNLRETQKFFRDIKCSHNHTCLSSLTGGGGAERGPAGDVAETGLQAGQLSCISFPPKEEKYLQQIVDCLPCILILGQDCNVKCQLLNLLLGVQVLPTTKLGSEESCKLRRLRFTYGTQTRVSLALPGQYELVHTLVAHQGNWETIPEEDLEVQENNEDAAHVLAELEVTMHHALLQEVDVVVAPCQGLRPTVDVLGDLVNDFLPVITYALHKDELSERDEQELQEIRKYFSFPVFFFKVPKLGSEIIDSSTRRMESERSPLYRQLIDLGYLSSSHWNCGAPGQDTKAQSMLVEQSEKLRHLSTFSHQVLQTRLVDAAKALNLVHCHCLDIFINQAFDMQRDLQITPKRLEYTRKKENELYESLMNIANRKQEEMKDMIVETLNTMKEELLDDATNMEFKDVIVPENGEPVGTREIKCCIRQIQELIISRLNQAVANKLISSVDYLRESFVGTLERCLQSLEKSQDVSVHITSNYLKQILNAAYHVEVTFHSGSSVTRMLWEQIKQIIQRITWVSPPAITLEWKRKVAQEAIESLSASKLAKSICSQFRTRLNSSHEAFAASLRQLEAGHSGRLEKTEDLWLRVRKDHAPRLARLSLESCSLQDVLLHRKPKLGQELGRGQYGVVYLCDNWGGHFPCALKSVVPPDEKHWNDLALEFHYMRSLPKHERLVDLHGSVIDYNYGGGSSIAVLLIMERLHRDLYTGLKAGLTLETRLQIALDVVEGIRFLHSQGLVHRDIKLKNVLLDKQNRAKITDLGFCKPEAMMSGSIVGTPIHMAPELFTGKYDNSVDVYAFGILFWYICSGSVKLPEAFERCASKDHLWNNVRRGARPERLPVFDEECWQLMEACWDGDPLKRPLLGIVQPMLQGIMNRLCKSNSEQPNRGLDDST
As to the kind of experiment: Selectivity interaction (KinomeScan (DiscoverX)) EUB0000607a DSTYK. The settings on record: at 10 µM.

Experiment [5] addresses Serine/threonine-protein kinase MARK1 (Homo sapiens) (UniProt Q9P0L2). The experiment in a line: Selectivity interaction (ProQinase) EUB0000171b MARK1.
Experiment [6] concerns the target Vascular endothelial growth factor receptor 3 (Homo sapiens, UniProt P35916). As to the kind of experiment: Selectivity interaction (Ambit KINOMEscan and KiNATiv profiling in Jurkat cells) EUB0000090b FLT4. Format: cell-based. The following applies: at 1 µM.
For experiment [7], the target named is Mitogen-activated protein kinase 4 (Homo sapiens) (UniProt P31152). As to the kind of experiment: Selectivity interaction (KinomeScan (DiscoverX)) EUB0001049a MAPK4. The following applies: at 1 µM.
Chain of Mitogen-activated protein kinase 4 (Homo sapiens) (P31152 whole entry): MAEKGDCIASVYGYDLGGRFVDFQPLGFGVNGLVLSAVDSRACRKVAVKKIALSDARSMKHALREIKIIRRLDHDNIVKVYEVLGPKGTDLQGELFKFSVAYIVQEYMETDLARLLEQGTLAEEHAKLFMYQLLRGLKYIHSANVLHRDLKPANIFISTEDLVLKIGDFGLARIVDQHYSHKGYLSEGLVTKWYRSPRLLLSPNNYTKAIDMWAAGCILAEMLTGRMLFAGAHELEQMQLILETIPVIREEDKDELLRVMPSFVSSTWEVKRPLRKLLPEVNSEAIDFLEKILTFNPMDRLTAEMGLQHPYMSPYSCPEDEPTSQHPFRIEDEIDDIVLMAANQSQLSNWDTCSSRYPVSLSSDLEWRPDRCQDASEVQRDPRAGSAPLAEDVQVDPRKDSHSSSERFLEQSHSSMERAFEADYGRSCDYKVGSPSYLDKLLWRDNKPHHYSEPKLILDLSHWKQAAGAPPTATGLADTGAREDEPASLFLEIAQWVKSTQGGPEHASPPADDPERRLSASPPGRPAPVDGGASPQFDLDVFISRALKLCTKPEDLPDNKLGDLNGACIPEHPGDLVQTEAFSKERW
The target in experiment [8] is Cyclin-dependent kinase 18 (Homo sapiens) (UniProt Q07002). As to the kind of experiment: Selectivity interaction (KinomeScan (DiscoverX)) EUB0000655a CDK18. The following applies: at 10 µM.
The target of experiment [9] is T2, Gamma-aminobutyric acid receptor subunit alpha-1 (Homo sapiens) (UniProt P14867).
T2 sequence (whole entry): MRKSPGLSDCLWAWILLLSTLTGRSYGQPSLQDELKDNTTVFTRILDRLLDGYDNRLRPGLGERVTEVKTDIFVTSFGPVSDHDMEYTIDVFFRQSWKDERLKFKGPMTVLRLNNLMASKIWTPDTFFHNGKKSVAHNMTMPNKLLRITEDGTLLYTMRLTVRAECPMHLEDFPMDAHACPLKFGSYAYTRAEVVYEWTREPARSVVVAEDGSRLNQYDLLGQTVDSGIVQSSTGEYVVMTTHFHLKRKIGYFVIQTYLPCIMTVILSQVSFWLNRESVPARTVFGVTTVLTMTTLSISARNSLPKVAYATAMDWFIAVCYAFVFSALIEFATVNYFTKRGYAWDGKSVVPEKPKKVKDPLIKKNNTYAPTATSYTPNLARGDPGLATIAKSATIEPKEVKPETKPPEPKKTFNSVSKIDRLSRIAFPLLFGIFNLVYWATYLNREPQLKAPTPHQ
The experiment in a line: Selectivity interaction (GPCR panel (PDSP screen)) EUB0001079a GABRA1. The settings on record: at 10 µM.

Experiment [10] addresses T3, Serine/threonine-protein kinase 3 (Homo sapiens) (UniProt Q13188).
T3 sequence (whole entry): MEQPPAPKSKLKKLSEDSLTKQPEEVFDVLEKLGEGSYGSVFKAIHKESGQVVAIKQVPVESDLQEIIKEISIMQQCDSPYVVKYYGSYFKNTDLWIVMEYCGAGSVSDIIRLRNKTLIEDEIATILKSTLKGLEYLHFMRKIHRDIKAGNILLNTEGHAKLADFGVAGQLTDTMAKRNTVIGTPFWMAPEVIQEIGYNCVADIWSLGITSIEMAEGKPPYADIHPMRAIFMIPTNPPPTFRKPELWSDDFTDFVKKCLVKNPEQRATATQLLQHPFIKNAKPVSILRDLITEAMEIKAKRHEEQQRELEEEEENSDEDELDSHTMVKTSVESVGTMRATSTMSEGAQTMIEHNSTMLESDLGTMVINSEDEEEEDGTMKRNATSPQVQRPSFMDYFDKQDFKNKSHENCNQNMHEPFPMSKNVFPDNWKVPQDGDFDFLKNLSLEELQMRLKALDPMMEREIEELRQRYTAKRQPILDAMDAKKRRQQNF
The experiment in a line: Selectivity interaction (KinomeScan (DiscoverX)) EUB0001079a STK3. The following applies: at 1 µM.

The target in experiment [11] is Cyclin-dependent kinase 2/cyclin A (Homo sapiens) (UniProt P24941+P20248+P78396). The experiment in a line: Selectivity interaction (Millipore kinase profiler) EUB0000124b CDK2. It counts as protein-complex assay. The settings on record: at 10 µM.
Experiment [12] has as its target T4, Dual specificity mitogen-activated protein kinase kinase 6 (Homo sapiens) (UniProt P52564).
T4 sequence (whole entry): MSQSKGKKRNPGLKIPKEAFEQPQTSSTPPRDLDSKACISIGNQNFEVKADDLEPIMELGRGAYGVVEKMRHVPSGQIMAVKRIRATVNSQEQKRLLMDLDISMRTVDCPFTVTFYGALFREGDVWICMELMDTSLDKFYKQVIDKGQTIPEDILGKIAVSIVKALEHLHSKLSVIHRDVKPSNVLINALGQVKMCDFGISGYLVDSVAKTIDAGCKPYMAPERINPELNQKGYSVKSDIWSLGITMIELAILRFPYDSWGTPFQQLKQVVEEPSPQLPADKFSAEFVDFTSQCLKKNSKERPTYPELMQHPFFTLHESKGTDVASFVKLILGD
The experiment in a line: Selectivity interaction (KinomeScan (DiscoverX)) EUB0000229b MAP2K6. The settings on record: at 10 µM.

Results on eleven compounds are retold here after ChEMBL document CHEMBL5465560, “Selectivity Literature for EUbOPEN Chemogenomic Library” (2024).

A value given as a limit tells only on which side of the number the result lay.

Chain of Histone-lysine N-methyltransferase, H3 lysine-36 specific (Homo sapiens) (Q96L73 whole entry): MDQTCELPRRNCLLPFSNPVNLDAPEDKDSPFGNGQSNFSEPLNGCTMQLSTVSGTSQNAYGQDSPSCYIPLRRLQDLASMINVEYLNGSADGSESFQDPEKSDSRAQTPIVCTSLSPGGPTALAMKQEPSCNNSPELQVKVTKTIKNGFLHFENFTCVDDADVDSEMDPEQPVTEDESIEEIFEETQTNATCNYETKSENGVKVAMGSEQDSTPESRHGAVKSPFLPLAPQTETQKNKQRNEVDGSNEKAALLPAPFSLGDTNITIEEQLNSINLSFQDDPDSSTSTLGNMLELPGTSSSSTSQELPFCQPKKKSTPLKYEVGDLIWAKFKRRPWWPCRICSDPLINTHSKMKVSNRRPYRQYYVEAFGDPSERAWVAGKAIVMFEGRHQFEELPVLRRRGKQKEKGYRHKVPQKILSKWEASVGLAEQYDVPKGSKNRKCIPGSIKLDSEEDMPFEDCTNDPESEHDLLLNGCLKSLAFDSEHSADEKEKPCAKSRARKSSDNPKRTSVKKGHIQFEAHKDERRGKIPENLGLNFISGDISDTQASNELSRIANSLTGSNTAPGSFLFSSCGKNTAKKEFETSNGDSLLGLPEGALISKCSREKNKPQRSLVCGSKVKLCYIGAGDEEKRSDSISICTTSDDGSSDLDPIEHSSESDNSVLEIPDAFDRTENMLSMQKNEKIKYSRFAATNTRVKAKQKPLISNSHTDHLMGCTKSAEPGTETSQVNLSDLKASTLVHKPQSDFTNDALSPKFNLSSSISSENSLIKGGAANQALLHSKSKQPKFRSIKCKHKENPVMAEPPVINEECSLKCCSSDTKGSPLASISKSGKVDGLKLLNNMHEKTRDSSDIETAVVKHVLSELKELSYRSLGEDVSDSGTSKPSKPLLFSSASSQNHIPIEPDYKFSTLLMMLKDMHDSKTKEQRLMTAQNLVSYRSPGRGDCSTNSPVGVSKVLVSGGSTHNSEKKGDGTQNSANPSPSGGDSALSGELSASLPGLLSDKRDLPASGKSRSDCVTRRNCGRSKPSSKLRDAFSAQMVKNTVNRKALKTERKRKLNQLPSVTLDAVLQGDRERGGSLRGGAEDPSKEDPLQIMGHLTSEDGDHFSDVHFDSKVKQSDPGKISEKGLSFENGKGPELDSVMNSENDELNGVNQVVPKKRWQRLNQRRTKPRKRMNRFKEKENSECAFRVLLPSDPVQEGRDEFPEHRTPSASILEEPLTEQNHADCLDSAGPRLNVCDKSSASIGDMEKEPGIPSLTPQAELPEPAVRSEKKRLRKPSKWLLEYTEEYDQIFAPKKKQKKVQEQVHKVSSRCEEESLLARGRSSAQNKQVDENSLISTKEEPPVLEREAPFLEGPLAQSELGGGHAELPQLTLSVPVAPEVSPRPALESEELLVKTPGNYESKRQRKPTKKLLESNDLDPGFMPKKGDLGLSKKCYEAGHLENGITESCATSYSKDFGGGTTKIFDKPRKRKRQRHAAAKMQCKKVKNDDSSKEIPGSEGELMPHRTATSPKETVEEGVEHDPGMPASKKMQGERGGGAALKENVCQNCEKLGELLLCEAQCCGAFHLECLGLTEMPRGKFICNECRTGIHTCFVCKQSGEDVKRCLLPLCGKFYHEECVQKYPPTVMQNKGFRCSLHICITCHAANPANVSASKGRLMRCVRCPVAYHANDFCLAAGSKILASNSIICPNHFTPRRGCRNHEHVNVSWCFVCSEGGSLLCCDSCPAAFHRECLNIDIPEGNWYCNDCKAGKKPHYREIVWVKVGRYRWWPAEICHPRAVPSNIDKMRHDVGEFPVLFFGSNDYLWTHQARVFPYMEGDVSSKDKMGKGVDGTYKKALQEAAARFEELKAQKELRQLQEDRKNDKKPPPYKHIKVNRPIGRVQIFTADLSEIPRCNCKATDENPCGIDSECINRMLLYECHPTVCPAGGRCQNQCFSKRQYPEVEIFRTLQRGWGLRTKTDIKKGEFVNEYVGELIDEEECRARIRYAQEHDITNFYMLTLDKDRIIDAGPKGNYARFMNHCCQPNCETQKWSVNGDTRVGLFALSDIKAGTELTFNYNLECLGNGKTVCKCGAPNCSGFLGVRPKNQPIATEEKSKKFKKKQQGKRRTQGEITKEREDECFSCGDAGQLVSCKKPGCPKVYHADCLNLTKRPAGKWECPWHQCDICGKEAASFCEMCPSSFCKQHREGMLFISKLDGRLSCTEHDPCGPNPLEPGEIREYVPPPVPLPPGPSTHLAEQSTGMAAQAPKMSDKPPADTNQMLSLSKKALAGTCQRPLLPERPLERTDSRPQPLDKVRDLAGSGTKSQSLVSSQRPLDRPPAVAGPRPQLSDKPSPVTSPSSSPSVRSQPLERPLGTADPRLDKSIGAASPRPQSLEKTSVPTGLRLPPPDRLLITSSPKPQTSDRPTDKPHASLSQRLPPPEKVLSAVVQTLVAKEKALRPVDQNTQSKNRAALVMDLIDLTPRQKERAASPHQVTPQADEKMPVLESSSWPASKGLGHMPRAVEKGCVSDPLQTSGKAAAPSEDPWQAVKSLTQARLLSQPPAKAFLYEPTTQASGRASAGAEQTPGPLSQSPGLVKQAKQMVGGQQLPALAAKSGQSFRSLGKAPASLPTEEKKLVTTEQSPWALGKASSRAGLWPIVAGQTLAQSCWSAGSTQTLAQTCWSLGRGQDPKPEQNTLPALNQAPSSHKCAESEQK
Chain of Serine/threonine-protein kinase MARK1 (Homo sapiens) (Q9P0L2 whole entry, looked up): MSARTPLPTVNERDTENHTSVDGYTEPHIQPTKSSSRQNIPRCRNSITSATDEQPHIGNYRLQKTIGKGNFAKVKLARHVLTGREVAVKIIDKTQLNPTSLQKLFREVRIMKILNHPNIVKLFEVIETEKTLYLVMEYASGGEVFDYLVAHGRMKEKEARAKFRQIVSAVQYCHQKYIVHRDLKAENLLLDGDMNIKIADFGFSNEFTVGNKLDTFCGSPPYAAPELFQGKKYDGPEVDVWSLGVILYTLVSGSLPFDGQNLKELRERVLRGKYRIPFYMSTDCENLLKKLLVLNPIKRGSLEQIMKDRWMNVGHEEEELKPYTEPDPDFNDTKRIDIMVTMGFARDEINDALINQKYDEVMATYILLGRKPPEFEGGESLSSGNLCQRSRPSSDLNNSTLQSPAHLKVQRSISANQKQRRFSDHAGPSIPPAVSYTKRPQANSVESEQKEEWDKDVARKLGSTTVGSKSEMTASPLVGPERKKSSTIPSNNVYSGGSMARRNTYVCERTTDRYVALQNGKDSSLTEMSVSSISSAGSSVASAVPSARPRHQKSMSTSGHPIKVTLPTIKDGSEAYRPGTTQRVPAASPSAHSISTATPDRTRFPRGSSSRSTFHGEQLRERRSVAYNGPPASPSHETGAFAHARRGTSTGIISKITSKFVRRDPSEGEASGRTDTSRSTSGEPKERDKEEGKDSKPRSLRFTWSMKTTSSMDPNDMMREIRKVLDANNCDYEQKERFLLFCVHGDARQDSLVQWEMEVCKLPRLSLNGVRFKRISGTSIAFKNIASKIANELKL
Chain of Activin receptor type-2A (Homo sapiens) (P27037 whole entry): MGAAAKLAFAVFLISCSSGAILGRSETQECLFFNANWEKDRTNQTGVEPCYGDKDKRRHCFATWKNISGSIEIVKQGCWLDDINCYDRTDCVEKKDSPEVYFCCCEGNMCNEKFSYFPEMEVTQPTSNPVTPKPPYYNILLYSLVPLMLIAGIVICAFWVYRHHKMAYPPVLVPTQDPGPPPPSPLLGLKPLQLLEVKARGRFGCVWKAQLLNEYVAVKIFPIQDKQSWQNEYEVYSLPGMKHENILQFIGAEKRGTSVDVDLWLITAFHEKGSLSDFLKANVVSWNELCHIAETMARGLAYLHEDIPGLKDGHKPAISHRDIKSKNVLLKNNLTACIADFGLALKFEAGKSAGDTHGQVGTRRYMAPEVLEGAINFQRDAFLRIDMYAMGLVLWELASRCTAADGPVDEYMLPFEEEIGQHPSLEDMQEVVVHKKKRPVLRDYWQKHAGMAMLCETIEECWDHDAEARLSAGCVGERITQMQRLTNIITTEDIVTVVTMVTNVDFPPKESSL

For the compound `Cn1cc(-n2cnc3c(NCc4nc5cc(Cl)c(Cl)cc5[nH]4)nc(N4CCOCC4)nc32)cn1`, the % of inhibition in [1] is -39.5%. `COCCN1CCC(c2cc(CN(C)C(=O)c3cccc(Oc4ccccc4)c3)ccn2)CC1`: the % activity in experiment [2] (at 1 µM) was > 95%; in experiment [2] (at 10 µM), > 90%.

The compound `O=C(NOC[C@H](O)CO)c1ccc(F)c(F)c1Nc1ccc(I)cc1F` registered a % of control in experiment [3] of 83%. Regarding `CNC(=O)Nc1ccc(-c2nc(N3CC4CCC(C3)O4)c3cnn(C4CCC5(CC4)OCCO5)c3n2)cc1`, the % of control in experiment [4] came to 100%. Consider `C=CC(=O)Nc1cccc(C(=O)Nc2ccc(Nc3cc(-c4[nH]c(SC)nc4C)ccn3)cc2)c1`, for which the % of control was determined as 100% in [5] (at 1 µM) and 88% in experiment [5] (at 5 µM). As to `CN(C)C/C=C/C(=O)Nc1ccc(C(=O)N2CCCC(Nc3ncc(Cl)c(-c4c[nH]c5ccccc45)n3)C2)cc1` (centres undefined), in [6], the % of control is 70%.

Compound `COc1cc(Nc2nc(C)cc(-c3cnn4nc(OC)ccc34)n2)cc(C(F)(F)F)c1` displayed a % of control in [7] of 100%. For `CN(C)CCOc1ccc(-c2nc(-c3ccncc3)c(-c3ccc4c(c3)CC/C4=N\O)[nH]2)cc1`, the % of control in [8] is 100%. As for `Nc1cnc(N2CCc3cc(S(=O)(=O)Nc4c(F)cc(Cl)cc4F)cc(N4CCCC4=O)c32)nc1` [TP-020n], the % of inhibition in [9] is -1.96%. For the same compound, the % of control in experiment [10] stood at 96%. `CC(=O)Nc1cccc(-n2c(=O)n(C3CC3)c(=O)c3c(Nc4ccc(I)cc4F)n(C)c(=O)c(C)c32)c1`: the % of control in experiment [11] worked out at 101%. Consider `COc1cc(N(C)c2ccnc3ccc(C(F)(F)F)cc23)cc(OC)c1OC`, for which, in experiment [12], the % binding was 75%.
